Results published in patent US12129246B1, “Hydroquinazoline derivatives for the treatment of a disease or disorder” (Novartis AG, priority 2023, dated 2024).
Where two headings read alike, the source gives them in different places.

Tests used:
monkey NPR1 = monkey NPR1 (Macaca fascicularis, UniProt A0A7N9DBT9); test: Cellular cGMP production assay, monkey NPR1 expressing CHO-K1 cells (CisBio HTRF); format: cell-based; conditions: for Monkey NPR1 Amax (% of ANP): maximum cGMP production as percentage of the maximum cGMP produced with ANP
In short: (§1)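 CHO-K1 cells expressing human or cynomolgus NPR1 treated with compound (12-point, 3-fold dilutions from 30 μM top) in PBS+0.1% BSA with 1 mM IBMX, 30 min at 37° C. After lysis, cGMP quantified by HTRF competition (cGMP-d2/anti-cGMP-cryptate, 1 h RT, 665 nm emission) against a calibrator standard curve.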

human NPR1 = biological target: T1, human NPR1 (Homo sapiens, UniProt P16066); test: Cellular cGMP production assay, human NPR1 expressing CHO-K1 cells (CisBio HTRF); format: cell-based; conditions: for AC50: cGMP production, 30 min at 37° C., 12-point dose-response from 30 μM; for Human NPR1 Amax (% of ANP): maximum cGMP production as percentage of the maximum cGMP produced with ANP
T1 construct: host or cells: CHO-K1
T1 sequence (P16066 33-1061): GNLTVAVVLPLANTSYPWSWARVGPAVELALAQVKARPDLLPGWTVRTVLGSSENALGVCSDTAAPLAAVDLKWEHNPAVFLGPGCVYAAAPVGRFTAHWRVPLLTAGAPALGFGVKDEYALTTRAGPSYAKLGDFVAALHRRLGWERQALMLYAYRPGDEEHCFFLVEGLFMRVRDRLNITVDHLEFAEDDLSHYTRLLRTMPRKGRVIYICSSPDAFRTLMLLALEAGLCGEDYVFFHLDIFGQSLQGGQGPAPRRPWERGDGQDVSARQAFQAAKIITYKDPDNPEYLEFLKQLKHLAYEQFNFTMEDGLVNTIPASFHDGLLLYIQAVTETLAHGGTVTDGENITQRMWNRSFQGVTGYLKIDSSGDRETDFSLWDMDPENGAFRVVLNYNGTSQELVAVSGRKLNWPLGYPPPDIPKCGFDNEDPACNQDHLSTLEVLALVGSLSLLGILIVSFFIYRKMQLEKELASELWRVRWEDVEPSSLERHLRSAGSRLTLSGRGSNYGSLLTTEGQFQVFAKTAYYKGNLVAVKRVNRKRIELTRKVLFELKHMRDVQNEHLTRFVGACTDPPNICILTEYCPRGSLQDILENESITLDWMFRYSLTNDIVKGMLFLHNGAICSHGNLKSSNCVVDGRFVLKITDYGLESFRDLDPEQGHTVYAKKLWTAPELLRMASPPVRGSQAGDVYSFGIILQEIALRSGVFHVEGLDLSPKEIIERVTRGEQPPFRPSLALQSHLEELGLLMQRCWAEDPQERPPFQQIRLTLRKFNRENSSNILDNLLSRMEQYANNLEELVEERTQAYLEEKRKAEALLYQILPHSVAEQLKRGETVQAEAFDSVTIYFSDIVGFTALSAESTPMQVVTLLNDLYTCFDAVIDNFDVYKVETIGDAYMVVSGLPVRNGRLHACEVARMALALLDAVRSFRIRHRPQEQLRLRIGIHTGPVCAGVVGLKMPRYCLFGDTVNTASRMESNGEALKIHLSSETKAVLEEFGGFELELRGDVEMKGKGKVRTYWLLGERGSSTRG
In short: as §1

[1] = cGMP production, monkey NPR1 CHO-K1 cells, 30 min at 37° C., 12-point dose-response from 30 μM, read-out: Monkey NPR1 AC50

Chain of monkey NPR1 (A0A7N9DBT9 entry or part of it): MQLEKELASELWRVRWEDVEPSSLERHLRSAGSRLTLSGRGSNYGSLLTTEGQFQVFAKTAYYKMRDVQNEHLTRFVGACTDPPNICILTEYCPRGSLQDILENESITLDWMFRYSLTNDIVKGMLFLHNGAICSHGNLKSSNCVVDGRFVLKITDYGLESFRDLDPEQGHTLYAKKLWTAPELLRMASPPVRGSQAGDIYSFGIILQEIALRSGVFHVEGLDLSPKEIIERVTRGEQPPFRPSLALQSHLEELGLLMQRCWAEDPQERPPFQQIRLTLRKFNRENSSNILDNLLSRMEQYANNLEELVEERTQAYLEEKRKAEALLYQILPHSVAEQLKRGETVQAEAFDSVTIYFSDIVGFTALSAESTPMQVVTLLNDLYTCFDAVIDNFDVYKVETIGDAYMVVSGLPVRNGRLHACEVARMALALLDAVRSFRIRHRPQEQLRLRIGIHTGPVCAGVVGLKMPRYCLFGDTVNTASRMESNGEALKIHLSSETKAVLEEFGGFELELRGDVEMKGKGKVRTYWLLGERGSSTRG

Compound | AC50 (monkey NPR1; [1]) [nM] | Monkey NPR1 Amax (% of ANP) (monkey NPR1; monkey NPR1 CHO-K1 cells) | AC50 (human NPR1) [nM] | Human NPR1 Amax (% of ANP) (human NPR1) | AC50 (monkey NPR1) [nM]
CC[C@H]([C@H]1CC[C@H](C(=O)O)CC1)N(C)c1nc2c(c(N[C@@H](CN3CCCC[C@@H]3CO)c3cnn(CC)c3)n1)C[C@H](c1cccc(F)c1)CC2 [Compound 104, (1R,4r)-4-((R)-1-(((R)-4-(((R)-1-(1-ethyl-1H-pyrazol-4-yl)-2-((R)-2-(hydroxymethyl)piperidin-1-yl)ethyl)amino)-6-(3-fluorophenyl)-5,6,7,8-tetrahydroquinazolin-2-yl)(methyl)amino)propyl)cyclohexane-1-carboxylic acid] | 290 | 109.908 % of ANP | 396 | 106.357 % of ANP | 
CC[C@@H](Nc1nc2c(c(N[C@@H](CN3CCCCC3)c3cnn(C(C)C)c3)n1)C[C@H](c1ccccc1)CC2)[C@H]1CC[C@H](C(=O)O)CC1 [Compound 100, (1R,4r)-4-((R)-1-(((R)-4-(((R)-1-(1-isopropyl-1H-pyrazol-4-yl)-2-(piperidin-1-yl)ethyl)amino)-6-phenyl-5,6,7,8-tetrahydroquinazolin-2-yl)amino)propyl)cyclohexane-1-carboxylic acid] | 161 | 105.588 % of ANP | 354 | 92.848 % of ANP | 
CC[C@@H](Nc1nc2c(c(N[C@@H](CN3CCC[C@H](C)C3)c3cnn(C(C)C)c3)n1)C[C@H](c1ccccc1)CC2)[C@H]1CC[C@H](C(=O)O)CC1 [Compound 22, (1R,4r)-4-((R)-1-(((R)-4-(((R)-1-(1-isopropyl-1H-pyrazol-4-yl)-2-((S)-3-methylpiperidin-1-yl)ethyl)amino)-6-phenyl-5,6,7,8-tetrahydroquinazolin-2-yl)amino)propyl)cyclohexane-1-carboxylic acid] | 74 | 103.742 % of ANP | 114 | 102.676 % of ANP | 
CC[C@H]([C@H]1CC[C@H](C(=O)O)CC1)N(C)c1nc2c(c(N[C@@H](CN3C4CCCC3CCC4)c3cnn(CC)c3)n1)C[C@H](c1ccccc1)CC2 [Compound 92, (1R,4r)-4-((R)-1-(((R)-4-(((R)-2-((1S,5S)-9-azabicyclo[3.3.1]nonan-9-yl)-1-(1-ethyl-1H-pyrazol-4-yl)ethyl)amino)-6-phenyl-5,6,7,8-tetrahydroquinazolin-2-yl)(methyl)amino)propyl)cyclohexane-1-carboxylic acid] |  | 99.824 % of ANP | 317 | 99.678 % of ANP | 249
CC[C@@H](N(C)c1nc2c(c(N[C@@H](CN3CCC[C@H](C)C3)c3cnn(CC)c3)n1)C[C@H](c1cccc(F)c1)CC2)C12CC(C(=O)O)(C1)C2 [Compound 13, 3-((R)-1-(((R)-4-(((R)-1-(1-ethyl-1H-pyrazol-4-yl)-2-((S)-3-methylpiperidin-1-yl)ethyl)amino)-6-(3-fluorophenyl)-5,6,7,8-tetrahydroquinazolin-2-yl)(methyl)amino)propyl)bicyclo[1.1.1]pentane-1-carboxylic acid] | 64 | 100.145 % of ANP | 94 | 99.405 % of ANP | 
CC[C@@H](Nc1nc2c(c(N[C@@H](CN3CC4CCC3C4)c3ccccc3)n1)C[C@H](c1ccccc1)CC2)[C@H]1CC[C@H](C(=O)O)CC1 (stereo partly drawn) [Compound 160, (1R,4r)-4-((1R)-1-(((6R)-4-(((1R)-2-(2-azabicyclo[2.2.1]heptan-2-yl)-1-phenylethyl)amino)-6-phenyl-5,6,7,8-tetrahydroquinazolin-2-yl)amino)propyl)cyclohexane-1-carboxylic acid] | 1430 | 102.098 % of ANP | 1620 | 94.868 % of ANP | 
CC[C@H]([C@H]1CC[C@H](C(=O)O)CC1)N(C)c1nc2c(c(N[C@@H](CN3CCC4CC4C3)c3cnn(C)c3)n1)C[C@H](c1ccccc1)CC2 (stereo partly drawn) [Compound 78, (1R,4r)-4-((1R)-1-(((6R)-4-(((1R)-2-(3-azabicyclo[4.1.0]heptan-3-yl)-1-(1-methyl-1H-pyrazol-4-yl)ethyl)amino)-6-phenyl-5,6,7,8-tetrahydroquinazolin-2-yl)(methyl)amino)propyl)cyclohexane-1-carboxylic acid] | 212 | 102.158 % of ANP | 254 | 99.406 % of ANP | 
CC[C@H](N(C)c1nc2c(c(N[C@@H](CN3C4CCCC3CC4)c3cnn(C)c3)n1)C[C@](C)(c1ccccc1)CC2)C12CC(C(=O)O)(C1)C2 [Compound 69, 3-((1S)-1-(((6R)-4-(((1R)-2-(8-azabicyclo[3.2.1]octan-8-yl)-1-(1-methyl-1H-pyrazol-4-yl)ethyl)amino)-6-methyl-6-phenyl-5,6,7,8-tetrahydroquinazolin-2-yl)(methyl)amino)propyl)bicyclo[1.1.1]pentane-1-carboxylic acid] |  | 100.449 % of ANP | 234 | 98.634 % of ANP | 220
CC[C@@H](Nc1nc2c(c(N[C@@H](CN3C4CC5CC(C4)CC3C5)c3cnn(CC)c3)n1)C[C@H](c1ccccc1)CC2)[C@H]1CC[C@H](C(=O)O)CC1 [Compound 38, (1R,4r)-4-((R)-1-(((R)-4-(((R)-2-((1R,3R,5R,7R)-2-azaadamantan-2-yl)-1-(1-ethyl-1H-pyrazol-4-yl)ethyl)amino)-6-phenyl-5,6,7,8-tetrahydroquinazolin-2-yl)amino)propyl)cyclohexane-1-carboxylic acid] | 83 | 101.007 % of ANP | 161 | 101.675 % of ANP | 
CC[C@H]([C@H]1CC[C@H](C(=O)O)CC1)N(C)c1nc2c(c(N[C@@H](CN3CCC[C@H](CF)C3)c3cnn(C)c3)n1)C[C@H](c1cccc(F)c1)CC2 [Compound 19, (1R,4r)-4-((R)-1-(((R)-4-(((R)-2-((S)-3-(fluoromethyl)piperidin-1-yl)-1-(1-methyl-1H-pyrazol-4-yl)ethyl)amino)-6-(3-fluorophenyl)-5,6,7,8-tetrahydroquinazolin-2-yl)(methyl)amino)propyl)cyclohexane-1-carboxylic acid] | 82 | 98.174 % of ANP | 108 | 100.504 % of ANP | 
CC[C@@H](Nc1nc2c(c(N[C@@H](CN3CCCC[C@H]3C)c3cnn(C)c3)n1)C[C@H](c1ccccc1)CC2)[C@H]1CC[C@H](C(=O)O)CC1 [Compound 90, (1R,4r)-4-((R)-1-(((R)-4-(((R)-1-(1-methyl-1H-pyrazol-4-yl)-2-((R)-2-methylpiperidin-1-yl)ethyl)amino)-6-phenyl-5,6,7,8-tetrahydroquinazolin-2-yl)amino)propyl)cyclohexane-1-carboxylic acid] | 224 | 106.347 % of ANP | 313 | 103.308 % of ANP | 
CC[C@@H](Nc1nc2c(c(N[C@@H](CN3CCCCC3)c3cnn(CC)c3)n1)C[C@H](c1cccc(F)c1)CC2)[C@H]1CC[C@H](C(=O)O)CC1 [Compound 30, (1R,4r)-4-((R)-1-(((R)-4-(((R)-1-(1-ethyl-1H-pyrazol-4-yl)-2-(piperidin-1-yl)ethyl)amino)-6-(3-fluorophenyl)-5,6,7,8-tetrahydroquinazolin-2-yl)amino)propyl)cyclohexane-1-carboxylic acid] | 77 | 99.091 % of ANP | 140 | 99.863 % of ANP | 
CC[C@@H](Nc1nc2c(c(N[C@@H](CN3CCC[C@H](C)C3)c3cnn(CC)c3)n1)CN(c1cccc(F)c1)CC2)[C@H]1CC[C@H](C(=O)O)CC1 [Compound 76, (1R,4r)-4-((R)-1-((4-(((R)-1-(1-ethyl-1H-pyrazol-4-yl)-2-((S)-3-methylpiperidin-1-yl)ethyl)amino)-6-(3-fluorophenyl)-5,6,7,8-tetrahydropyrido[4,3-d]pyrimidin-2-yl)amino)propyl)cyclohexane-1-carboxylic acid] | 147 | 100.861 % of ANP | 247 | 100.752 % of ANP | 
